This note sets out measurements from PubChem BioAssay (NCI).

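Briefly, cells in 96-well plates were exposed to five compound concentrations for 48 h, and endpoints were estimated by linear interpolation. TGI is the concentration that stops growth completely.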

Some test systems named below: SR leukemia; SW-620 colon; LOX IMVI melanoma; HCT-116 colon; HS 578T breast; NCI-H522 lung; PC-3 prostate; UACC-257 melanoma; DU-145 prostate.
Common to all, as to assay: NCI-60 cell line screen, 48 h

Consider `CSC1NNC2(C(=O)N1)c1ccccc1-c1ccccc12` (centres undefined), for which the TGI with SR leukemia, with SW-620 colon, with LOX IMVI melanoma, in the assay on HCT-116 colon, in the assay with HS 578T breast and in the assay on NCI-H522 lung was > 10 µM each time. For the same compound, the TGI in the assay on PC-3 prostate, in the assay with UACC-257 melanoma and with DU-145 prostate was > 10 µM in each case.
On to `Cc1nnc(CC#N)n1NC(=O)CC#N`, for which the TGI with SR leukemia, with SW-620 colon, in the assay on LOX IMVI melanoma, in the assay on HCT-116 colon, with HS 578T breast and in the assay with NCI-H522 lung was > 100 µM each time. In addition, the TGI in the assay with PC-3 prostate, in the assay on UACC-257 melanoma and in the assay with DU-145 prostate was > 100 µM in each case.
As for `OC(O)(C(F)(F)F)C(F)(F)F`, the TGI in the assay on SR leukemia, with SW-620 colon, in the assay on LOX IMVI melanoma, in the assay with HCT-116 colon, in the assay with HS 578T breast and in the assay on NCI-H522 lung was > 100 µM each time. Besides, the TGI with PC-3 prostate, in the assay with UACC-257 melanoma and in the assay with DU-145 prostate was > 100 µM each time.
As for `CCCCCCCCC[n+]1cccc(C2C(C(=O)OCC)=C(C)NC(C)=C2C(=O)OCC)c1`, the TGI with SR leukemia is > 25.3 µM; in the assay with SW-620 colon, 30.5 µM; with LOX IMVI melanoma, 9.34 µM; in the assay on HCT-116 colon, 30.5 µM; in the assay with HS 578T breast it was 10.7 µM; in the assay on NCI-H522 lung, 9.8 µM. For the same compound, the TGI came out at 15.2 µM in the assay with PC-3 prostate, 7.73 µM with UACC-257 melanoma and 25.9 µM in the assay with DU-145 prostate.
Consider `COC(=O)/C=C\C(C#N)(C#N)N=Cc1ccsc1`, for which the TGI was 0.645 µM with SR leukemia; 3.34 µM with SW-620 colon; 5.71 µM with LOX IMVI melanoma; 3.57 µM with HCT-116 colon; > 68 µM in the assay with HS 578T breast; 1.99 µM in the assay with NCI-H522 lung. Moreover, the TGI was 25.4 µM in the assay with PC-3 prostate, 9.35 µM with UACC-257 melanoma and 21.5 µM in the assay on DU-145 prostate.
With `O=S(=O)(O)c1ccc(Nc2ccnc3cc(Cl)ccc23)cc1`, the TGI with SR leukemia, in the assay with SW-620 colon, in the assay on LOX IMVI melanoma, in the assay on HCT-116 colon, in the assay on HS 578T breast and in the assay on NCI-H522 lung was > 100 µM throughout. Moreover, the TGI in the assay on PC-3 prostate, in the assay with UACC-257 melanoma and with DU-145 prostate was > 100 µM each time.
`CCOC(=O)CCC(C(=O)OCC)n1nnc2cc(Nc3c(C)[n+]([O-])c4ccc(Cl)cc4[n+]3[O-])ccc21` (centres undefined): the TGI in the assay with SR leukemia, with SW-620 colon, in the assay on LOX IMVI melanoma, in the assay on HCT-116 colon, with HS 578T breast and with NCI-H522 lung was > 100 µM throughout. For the same compound, the TGI with PC-3 prostate, in the assay with UACC-257 melanoma and in the assay on DU-145 prostate was > 100 µM each time.
Regarding `CSc1ccccc1P(CCP(c1ccccc1SC)c1ccccc1SC)c1ccccc1SC`, the TGI was > 42.6 µM with SR leukemia; > 100 µM with SW-620 colon; > 100 µM in the assay with LOX IMVI melanoma; > 100 µM with HCT-116 colon; > 100 µM with HS 578T breast; > 100 µM in the assay on NCI-H522 lung. Moreover, the TGI in the assay with PC-3 prostate is > 100 µM; in the assay on UACC-257 melanoma, > 89.5 µM; with DU-145 prostate, > 100 µM.
Consider `CCOC(=O)c1c(-c2ccc(OC)c(O)c2)c(C#N)c(=S)n(C2OC(CO)C(O)C(O)C2O)c1-c1ccccc1` (centres undefined), for which the TGI in the assay with SR leukemia, with SW-620 colon, in the assay on LOX IMVI melanoma, in the assay on HCT-116 colon, in the assay on HS 578T breast and in the assay on PC-3 prostate was > 100 µM in each case. Moreover, the TGI in the assay with UACC-257 melanoma and in the assay on DU-145 prostate was > 100 µM in each case.
For the compound `c1ccc2c(c1)c1c3n2-c2cc(on2)C3CCC1` (centres undefined), the TGI with SR leukemia, with SW-620 colon, with LOX IMVI melanoma, in the assay on HCT-116 colon, with HS 578T breast and in the assay on NCI-H522 lung was > 100 µM in each case. In addition, the TGI with PC-3 prostate, in the assay with UACC-257 melanoma and in the assay with DU-145 prostate was > 100 µM in each case.
`COc1cc(-c2[o+]c3cc(O)cc(OC4OC(CO)C(O)C(O)C4O)c3cc2OC2OC(CO)C(O)C(O)C2O)cc(OC)c1O` (centres undefined): the TGI with SR leukemia, in the assay on SW-620 colon, in the assay on LOX IMVI melanoma, in the assay on HCT-116 colon, in the assay on HS 578T breast and in the assay with NCI-H522 lung was > 100 µM throughout. The TGI with PC-3 prostate, with UACC-257 melanoma and with DU-145 prostate was > 100 µM throughout.
Consider `Cn1c(=O)c2[nH]c(CCC(=O)O)nc2n(C)c1=O`, for which the TGI in the assay with SR leukemia, in the assay with SW-620 colon, in the assay on LOX IMVI melanoma, in the assay with HCT-116 colon, in the assay with HS 578T breast and in the assay on NCI-H522 lung was > 100 µM each time. Moreover, the TGI in the assay on PC-3 prostate, with UACC-257 melanoma and in the assay on DU-145 prostate was > 100 µM in each case.
For the compound `CCOC(=O)c1cc(-c2ccn(C(C)=O)c2)c(-c2cc(C)co2)[nH]1`, the TGI in the assay with SR leukemia, in the assay with SW-620 colon, with LOX IMVI melanoma, with HCT-116 colon, with HS 578T breast and in the assay on NCI-H522 lung was > 100 µM throughout. For the same compound, the TGI with PC-3 prostate, with UACC-257 melanoma and in the assay with DU-145 prostate was > 100 µM in each case.
`Cc1ccc(S(=O)(=O)N2CCN(CCO)CCN(S(=O)(=O)c3ccc(C)cc3)CCN(CCO)CC2)cc1`: the TGI is 27.8 µM with SR leukemia; > 100 µM in the assay with SW-620 colon; 28.4 µM in the assay on LOX IMVI melanoma; 29.1 µM in the assay on HCT-116 colon; 93.4 µM in the assay on HS 578T breast; 33.2 µM in the assay on NCI-H522 lung. For the same compound, the TGI in the assay on PC-3 prostate was > 100 µM; in the assay on UACC-257 melanoma it was 25.1 µM; in the assay on DU-145 prostate, 34.8 µM.
For the compound `Cc1cccc(C(O)c2cccnc2)c1O` (centres undefined), the TGI in the assay on SR leukemia, in the assay with SW-620 colon, in the assay on LOX IMVI melanoma, in the assay on HCT-116 colon, with HS 578T breast and in the assay on NCI-H522 lung was > 100 µM each time. For the same compound, the TGI in the assay with PC-3 prostate, in the assay with UACC-257 melanoma and in the assay with DU-145 prostate was > 100 µM each time.
